# Experimental data reported in US10149809B2, “Skin aging inhibitor and concentrate of resveratrol 3-O-α-glucoside” (priority 2014, dated 2018).
# Tests used:
# [1] = Solubility in solvent containing 1,2-pentanediol; format: physicochemical
# Method: (§1) Approximately 40 mg each of resveratrol 3-O-α-glucoside, resveratrol (Tokyo Chemical Industry Co., Ltd.), and resveratrol 3-O-β-glucoside (Tokyo Chemical Industry Co., Ltd.) was weighed, approximately 70 mg of a solvent (whose composition is shown in Table 18) containing ethanol (Wako Pure Chemical Industries, Ltd.) was added thereto, and the mixture was soaked in a water bath at 25° C. under light-tight conditions, and incubated for 15 hours with occasional stirring. After 15 hours, each of the samples was filtered through a 0.45 μm centrifugal filter, and then the concentration of each of the components in the filtrate was analyzed using HPLC under the same conditions as those described in Production Example 1 above. The dissolved concentration (w/v %) at 25° C. was thus determined.
# The solubility of resveratrol 3-O-α-glucoside was evaluated under the same conditions as those described in Example 18 above, except that a solvent (whose composition is shown in Table 23) containing 1,2-pentanediol (Kankosha Co., Ltd.) was used.
# [2] = Solubility in solvent containing 1,2-hexanediol; format: physicochemical
# Method: as §1
# The solubility of resveratrol 3-O-α-glucoside was evaluated under the same conditions as those described in Example 18 above, except that a solvent (whose composition is shown in Table 24) containing 1,2-hexanediol (Kankosha Co., Ltd.) was used.
# [3] = tested on: sirtuin 1 gene; assay: Sirtuin 1 gene expression-promoting effect (2); format: cell-based; settings: normal human epidermal keratinocytes, 0.001 wt %, 33 hours, medium without hydrocortisone; control = 100%
# Method: Normal human epidermal keratinocytes were seeded into 12-well culture plates at 5×10^4 cells per well. As the medium, EpiLife KG-2 medium supplemented with insulin, hEGF, hydrocortisone, anti-microbial agents, and BPE was used (basal medium), and the cells were preincubated in 5% CO2 at 37° C. for 48 hours. The medium was removed, and then replaced with a sample medium obtained by removing hydrocortisone from the above-described basal medium, and by supplementing the resulting medium with resveratrol 3-O-α-glucoside to a concentration of 0.001 wt %, and the cells were cultured in 5% CO2 at 37° C. For comparison, the cells were cultured under the same conditions as described above, except that resveratrol 3-O-α-glucoside in the sample medium was replaced by resveratrol 3-O-β-glucoside. After 33 hours of culture, total RNA was extracted from the cells, and the level of expression of the sirtuin 1 gene was quantified by real time PCR. As a control group, cells were cultured without resveratrol 3-O-α-glucoside or resveratrol 3-O-β-glucoside, and total RNA collected from these cells was used. Taking as 100% the level of expression of the sirtuin 1 gene for the control group, a relative ratio of the expression level of the sirtuin 1 gene for the resveratrol 3-O-α-glucoside- or resveratrol 3-O-β-glucoside-supplemented group (SIRT 1 gene expression ratio, %) was determined. […]
# [4] = Solubility in solvent containing glycerol; format: physicochemical
# Method: as §1
# The solubility of resveratrol 3-O-α-glucoside was evaluated under the same conditions as those described in Example 18 above, except that a solvent (whose composition is shown in Table 19) containing glycerol (Wako Pure Chemical Industries, Ltd.) was used.
# [5] = Solubility in solvent containing propylene glycol; format: physicochemical
# Method: as §1
# The solubility of resveratrol 3-O-α-glucoside was evaluated under the same conditions as those described in Example 18 above, except that a solvent (whose composition is shown in Table 20) containing propylene glycol (Wako Pure Chemical Industries, Ltd.) was used.
# [6] = tested on: matrix metalloproteinase 9 (MMP9) gene; assay: MMP9 gene expression in the epidermis (three-dimensional human skin model); format: cell-based; settings: 100 μL, 8 hours, distilled water control = 100%
# Method: Using a three-dimensional human skin model, the effect of resveratrol 3-O-α-glucoside on the matrix metalloproteinase 9 (MMP9) gene expression in the epidermis was investigated.
# An aqueous solution containing resveratrol 3-O-α-glucoside at a concentration of 0.02 or 0.1 wt %, or containing resveratrol 3-O-β-glucoside at a concentration of 0.02 wt % was prepared, and the resulting solution was used as a sample solution. One-hundred microliters of the sample solution were administered to the horny layer side of the human skin model (EpiDerm EPI-200; MatTek), and cultured in 5 mL of a special medium (EPI-100-ASY) at 37° C. for 8 hours. After the culture, total RNA was extracted from the skin model, and the level of expression of the MMP9 gene was quantified by real time PCR. As a control group, distilled water was administered to a skin model instead of the sample solution, and total RNA collected from the skin model was used.
# Taking as 100% the level of expression of the MMP9 gene for the control group, a relative ratio of the expression level of the MMP9 gene for the resveratrol 3-O-α-glucoside- or resveratrol 3-O-β-glucoside-supplemented group (MMP9 gene expression ratio, %) was determined. In the measurement of the expression level of the MMP9 gene, PPIA was used for internal standard correction.
# [7] = Solubility in solvent containing dipropylene glycol; format: physicochemical
# Method: as §1
# The solubility of resveratrol 3-O-α-glucoside was evaluated under the same conditions as those described in Example 18 above, except that a solvent (whose composition is shown in Table 22) containing dipropylene glycol (Asahi Glass Co., Ltd.) was used.
# [8] = Solubility in water; format: physicochemical
# Method: as §1, with “5” for “40”, “1 mL” for “70 mg”, “water” for “a solvent (whose composition is shown in Table 18) containing ethanol (Wako Pure Chemical Industries, Ltd.)”, “20” for “15”, “%) in water” for “%)”
# [9] = EpiDerm EPI-200, 0.02 wt % aqueous solution
structure (smiles),measurement,setting,value
"OC[C@H]1O[C@H](Oc2cc(O)cc(C=Cc3ccc(O)cc3)c2)[C@H](O)[C@@H](O)[C@@H]1O [Resveratrol 3-O-α-Glucoside, resveratrol 3-O-α-glucoside]",dissolved concentration,[1],exceeded 20 w/v %
same,dissolved concentration,[2],exceeded 25 w/v %
same,SIRT 1 Gene Expression Ratio (%),[3],141%
same,dissolved concentration,[4],exceeded 20 w/v %
same,dissolved concentration,[5],exceeded 30 w/v %
same,Dissolved Concentration (w/v %) at 25° C.,[5]; 15 h,0.3 w/v %
same,MMP9 Gene Expression Ratio (%),[6]; [9],85%
same,MMP9 Gene Expression Ratio (%),"[6]; EpiDerm EPI-200, 0.1 wt % aqueous solution",66%
same,dissolved concentration,[7],exceeded 30 w/v %
same,Dissolved Concentration (μg/mL) in Water,[8]; 20 h,2900 µg/mL
"OC[C@H]1O[C@@H](Oc2cc(O)cc(/C=C/c3ccc(O)cc3)c2)[C@H](O)[C@@H](O)[C@@H]1O [Resveratrol 3-O-β-Glucoside, resveratrol 3-O-β-glucoside]",Dissolved Concentration (w/v %) at 25° C.,"[1]; 1,2-Pentanediol:Water 0:100 (weight ratio)",0.04 w/v %
same,Dissolved Concentration (w/v %) at 25° C.,"[1]; 1,2-Pentanediol:Water 10:90 (weight ratio)",0.2 w/v %
same,Dissolved Concentration (w/v %) at 25° C.,"[1]; 1,2-Pentanediol:Water 25:75 (weight ratio)",2.3 w/v %
same,Dissolved Concentration (w/v %) at 25° C.,"[1]; 1,2-Pentanediol:Water 50:50 (weight ratio)",7.5 w/v %
same,Dissolved Concentration (w/v %) at 25° C.,"[1]; 1,2-Pentanediol:Water 75:25 (weight ratio)",11.3 w/v %
same,Dissolved Concentration (w/v %) at 25° C.,"[1]; 1,2-Pentanediol:Water 90:10 (weight ratio)",9.4 w/v %
same,Dissolved Concentration (w/v %) at 25° C.,"[1]; 1,2-Pentanediol:Water 100:0 (weight ratio)",4.6 w/v %
same,Dissolved Concentration (w/v %) at 25° C.,"[2]; 1,2-Hexanediol:Water 0:100 (weight ratio)",0.04 w/v %
same,Dissolved Concentration (w/v %) at 25° C.,"[2]; 1,2-Hexanediol:Water 5:95 (weight ratio)",0.1 w/v %
same,Dissolved Concentration (w/v %) at 25° C.,"[2]; 1,2-Hexanediol:Water 10:90 (weight ratio)",0.5 w/v %
same,Dissolved Concentration (w/v %) at 25° C.,"[2]; 1,2-Hexanediol:Water 25:75 (weight ratio)",2.6 w/v %
same,Dissolved Concentration (w/v %) at 25° C.,"[2]; 1,2-Hexanediol:Water 50:50 (weight ratio)",6.5 w/v %
same,Dissolved Concentration (w/v %) at 25° C.,"[2]; 1,2-Hexanediol:Water 75:25 (weight ratio)",7.9 w/v %
same,Dissolved Concentration (w/v %) at 25° C.,"[2]; 1,2-Hexanediol:Water 90:10 (weight ratio)",10.7 w/v %
same,Dissolved Concentration (w/v %) at 25° C.,"[2]; 1,2-Hexanediol:Water 100:0 (weight ratio)",3.2 w/v %
same,SIRT 1 Gene Expression Ratio (%),[3],120%
same,Dissolved Concentration (w/v %) at 25° C.,[4]; Glycerol:Water 0:100 (weight ratio),0.04 w/v %
same,Dissolved Concentration (w/v %) at 25° C.,[4]; Glycerol:Water 10:90 (weight ratio),0.05 w/v %
same,Dissolved Concentration (w/v %) at 25° C.,[4]; Glycerol:Water 25:75 (weight ratio),0.09 w/v %
same,Dissolved Concentration (w/v %) at 25° C.,[4]; Glycerol:Water 50:50 (weight ratio),0.3 w/v %
same,Dissolved Concentration (w/v %) at 25° C.,[4]; Glycerol:Water 75:25 (weight ratio),1.1 w/v %
same,Dissolved Concentration (w/v %) at 25° C.,[4]; Glycerol:Water 90:10 (weight ratio),1.9 w/v %
same,Dissolved Concentration (w/v %) at 25° C.,[4]; Glycerol:Water 100:0 (weight ratio),3.1 w/v %
same,Dissolved Concentration (w/v %) at 25° C.,[5]; Propylene Glycol:Water 0:100 (weight ratio),0.04 w/v %
same,Dissolved Concentration (w/v %) at 25° C.,[5]; Propylene Glycol:Water 5:95 (weight ratio),0.04 w/v %
same,Dissolved Concentration (w/v %) at 25° C.,[5]; Propylene Glycol:Water 10:90 (weight ratio),0.06 w/v %
same,Dissolved Concentration (w/v %) at 25° C.,[5]; Propylene Glycol:Water 15:85 (weight ratio),0.09 w/v %
same,Dissolved Concentration (w/v %) at 25° C.,[5]; Propylene Glycol:Water 20:80 (weight ratio),0.1 w/v %
same,Dissolved Concentration (w/v %) at 25° C.,[5]; Propylene Glycol:Water 25:75 (weight ratio),0.2 w/v %
same,Dissolved Concentration (w/v %) at 25° C.,[5]; Propylene Glycol:Water 50:50 (weight ratio),3.3 w/v %
same,Dissolved Concentration (w/v %) at 25° C.,[5]; Propylene Glycol:Water 75:25 (weight ratio),11.5 w/v %
same,Dissolved Concentration (w/v %) at 25° C.,[5]; Propylene Glycol:Water 90:10 (weight ratio),12.5 w/v %
same,Dissolved Concentration (w/v %) at 25° C.,[5]; Propylene Glycol:Water 100:0 (weight ratio),11.3 w/v %
same,MMP9 Gene Expression Ratio (%),[6]; [9],124%
same,Dissolved Concentration (w/v %) at 25° C.,[7]; Dipropylene Glycol:Water 0:100 (weight ratio),0.04 w/v %
same,Dissolved Concentration (w/v %) at 25° C.,[7]; Dipropylene Glycol:Water 5:95 (weight ratio),0.06 w/v %
same,Dissolved Concentration (w/v %) at 25° C.,[7]; Dipropylene Glycol:Water 10:90 (weight ratio),0.1 w/v %
same,Dissolved Concentration (w/v %) at 25° C.,[7]; Dipropylene Glycol:Water 15:85 (weight ratio),0.3 w/v %
same,Dissolved Concentration (w/v %) at 25° C.,[7]; Dipropylene Glycol:Water 20:80 (weight ratio),0.5 w/v %
same,Dissolved Concentration (w/v %) at 25° C.,[7]; Dipropylene Glycol:Water 25:75 (weight ratio),0.9 w/v %
same,Dissolved Concentration (w/v %) at 25° C.,[7]; Dipropylene Glycol:Water 50:50 (weight ratio),11.5 w/v %
same,Dissolved Concentration (w/v %) at 25° C.,[7]; Dipropylene Glycol:Water 75:25 (weight ratio),26.1 w/v %
same,Dissolved Concentration (w/v %) at 25° C.,[7]; Dipropylene Glycol:Water 90:10 (weight ratio),23.9 w/v %
same,Dissolved Concentration (w/v %) at 25° C.,[7]; Dipropylene Glycol:Water 100:0 (weight ratio),15.0 w/v %
same,Dissolved Concentration (μg/mL) in Water,"[8]; water, 25° C., 20 hours",370 µg/mL
